Reference: patent publication US11643393B2, “Integrin antagonists” (The General Hospital Corporation, priority 2018, dated 2023)
“Also recorded” adds a separate entry of the source. Where two headings read alike, the source gives them in different places. Positions of bridges follow the written chain, without caps; N, C: chain ends. Non-standard residues stand in square brackets, D forms with d. Residues, ends and D or L forms follow the SMILES beside them. hArg = N=C(N)NCCCC[C@H](N)C(=O)O; Mpa = O=C(O)CCS

Columns and labels:
[1] = target: T1, αIIbβ3 (Homo sapiens, UniProt P05106+P08514); experiment: Binding of conformation-sensitive mAbs AP5 / LIBS-1 to human platelets; type: cell-based; conditions: for induction of AP5 epitope expression: tirofiban 150 nM
T1 sequence (P08514 32-887 limits assumed): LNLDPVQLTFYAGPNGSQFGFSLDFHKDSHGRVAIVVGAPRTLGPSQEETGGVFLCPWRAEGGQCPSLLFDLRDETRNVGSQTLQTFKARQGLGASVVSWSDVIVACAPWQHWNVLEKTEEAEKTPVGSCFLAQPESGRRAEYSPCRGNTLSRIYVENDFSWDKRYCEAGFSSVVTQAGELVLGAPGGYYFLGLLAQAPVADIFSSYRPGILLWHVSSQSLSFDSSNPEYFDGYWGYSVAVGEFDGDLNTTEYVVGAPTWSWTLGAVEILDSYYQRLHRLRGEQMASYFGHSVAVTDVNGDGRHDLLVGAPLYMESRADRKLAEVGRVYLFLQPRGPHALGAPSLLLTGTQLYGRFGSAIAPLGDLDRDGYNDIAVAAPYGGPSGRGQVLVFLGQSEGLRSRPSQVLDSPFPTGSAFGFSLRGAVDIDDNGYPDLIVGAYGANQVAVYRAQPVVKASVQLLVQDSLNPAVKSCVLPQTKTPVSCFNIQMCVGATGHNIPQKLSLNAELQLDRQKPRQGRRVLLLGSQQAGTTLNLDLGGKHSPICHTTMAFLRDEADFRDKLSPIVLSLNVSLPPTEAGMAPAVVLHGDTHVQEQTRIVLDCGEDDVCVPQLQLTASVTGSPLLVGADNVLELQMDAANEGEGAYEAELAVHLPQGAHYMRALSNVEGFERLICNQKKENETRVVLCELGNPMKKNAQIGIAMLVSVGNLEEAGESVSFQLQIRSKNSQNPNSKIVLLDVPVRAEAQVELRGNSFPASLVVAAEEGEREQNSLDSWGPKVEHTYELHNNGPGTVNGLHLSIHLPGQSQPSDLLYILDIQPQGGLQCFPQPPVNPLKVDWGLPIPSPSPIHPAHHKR
T1 sequence (P08514 891-1039 partner limits assumed): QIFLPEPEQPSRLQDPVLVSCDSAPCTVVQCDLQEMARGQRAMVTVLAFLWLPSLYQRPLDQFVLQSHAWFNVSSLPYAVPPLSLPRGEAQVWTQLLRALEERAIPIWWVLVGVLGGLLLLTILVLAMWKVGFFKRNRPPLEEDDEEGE
T1 sequence (P05106 27-788): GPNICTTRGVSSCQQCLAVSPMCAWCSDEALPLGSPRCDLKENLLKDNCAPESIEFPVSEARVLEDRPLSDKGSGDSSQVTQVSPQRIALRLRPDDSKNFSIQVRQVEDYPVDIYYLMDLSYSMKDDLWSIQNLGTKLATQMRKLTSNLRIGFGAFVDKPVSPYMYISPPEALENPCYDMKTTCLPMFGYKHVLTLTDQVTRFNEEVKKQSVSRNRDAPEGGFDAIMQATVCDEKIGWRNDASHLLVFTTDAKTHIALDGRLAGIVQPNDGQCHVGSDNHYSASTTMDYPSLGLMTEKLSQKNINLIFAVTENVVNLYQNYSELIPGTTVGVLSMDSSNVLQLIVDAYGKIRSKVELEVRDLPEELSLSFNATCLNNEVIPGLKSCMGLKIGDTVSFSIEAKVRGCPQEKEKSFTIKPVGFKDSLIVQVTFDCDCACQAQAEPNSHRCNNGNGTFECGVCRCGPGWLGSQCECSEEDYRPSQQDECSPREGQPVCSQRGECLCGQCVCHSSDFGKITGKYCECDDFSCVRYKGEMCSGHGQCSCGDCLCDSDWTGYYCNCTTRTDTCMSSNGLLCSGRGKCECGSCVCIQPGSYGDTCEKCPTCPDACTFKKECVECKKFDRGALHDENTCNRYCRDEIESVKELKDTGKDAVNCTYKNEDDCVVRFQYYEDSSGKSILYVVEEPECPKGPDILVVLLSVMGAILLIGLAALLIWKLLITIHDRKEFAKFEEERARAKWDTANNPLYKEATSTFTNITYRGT

[2] = tested on: human platelet-rich plasma (PRP); experiment: Thrombin-induced clot retraction; type: cell-based; conditions: for effect on clot retraction induced by α-thrombin: FIG. 5, tirofiban 1.5 μM, m-tirofiban 15 μM, α-thrombin 0.5 unit/mL; for kinetics of thrombin-induced clot retraction: FIG. 6E, three experiments, vs buffer control
Experimental: 750 μL of Tyrode's buffer supplemented with inhibitor was mixed in a glass culture tube with 200 μL of PRP and 5 μL red blood cells. Clotting was initiated by addition of 50 μL thrombin at 10 units/ml in saline and a sealed Pasteur pipette secured in the tube center. Digital photographs of the experiment were taken at 15-minute intervals over 2 hours. Images were analyzed with ImageJ software to determine the area occupied by the clot and plasma. Plots of the relative areas and linear regressions were performed with SigmaPlot (Systat Software, San Jose, Calif.).
No ligands were added to the control (FIG. 5C) tube. Photographs were taken immediately after thrombin addition (FIG. 5A) and at the end of the reaction (FIG. 5B). Clot retraction around the central glass rod placed in each glass test tube before thrombin addition is shown. 5 μL of red blood cells were added per 1 mL reaction to enhance the color contrast for photography.
Clot retraction normally helps secure hemostasis in vivo as evidenced by increased bleeding in mice with impaired clot retraction (see e.g., Leon et al, Blood 110, 3183-3191, doi: 10.1182/blood-2007-03-080184 (2007)), or in recipients of any of the three anti-αIIbβ3 drugs (see e.g., Tutwiler et al, Biophys. J. 112, 714-723 (2017); Osdoit et al, J. Biol. Chem. 276, 6703-6710 (2001); Haling et al, Blood 117, 1719-1722 (2011)). The effects of Hr10 and eptifibatide on thrombin-induced clot retraction in fresh human platelet-rich plasma (PRP) (see e.g., Tucker et al, Methods Mol. Biol. 788, 101-107 (2012)) were compared. The kinetics of clot retraction were determined from quantification of serial images of the reaction acquired every 15 minutes for the 2-hour duration of the assay. […] Thrombolysis, 15, 71-80 (2003).

[3] = tested on: human platelets; experiment: ADP-induced ATP secretion from dense granules in whole blood; type: cell-based; conditions: 1.5 μM; ADP 20 μM; FIG. 11E
Experimental: (§1) Platelet aggregation and ATP secretion in whole blood were performed in a Chrono-Log model 700 two-channel lumi-aggregation system following the manufacturer's instructions. Blood was drawn directly into 3.2% sodium citrate from healthy volunteers, and blood was used within 3 hours. None of the subjects were taking any medications for at least 10 days prior. For impedance aggregation measurements, 0.5 mL of blood was mixed with 0.5 mL physiologic saline supplemented with inhibitors and incubated at 37° C. for 5 minutes without stirring. Measurements were performed with stirring at 1,200 rpm at 37° C. Values for each data point represent impedance measurements following application of agonist integrated over 5 minutes. Data points for an individual dose curve were serially collected from a single draw and analyzed with SigmaPlot (Systat Software, San Jose, Calif.) using a least-square fit to a logistic curve and the IC50 value determined from the fitted parameter. ATP secretion proceeded similarly except that 0.45 mL of whole blood were added to 0.45 mL of saline supplemented with various concentrations of Hr10 or eptifibatide to produce the desired concentration at 1.0 mL. Following incubation for 5 minutes at 37° C., 100 μL of Chrono-lume reagent was added and aggregation initiated. The luminescence signal was quantified with a non-aggregated sample supplemented with an ATP standard.

[4] = tested on: human platelets; experiment: ADP-induced surface expression of CD62P and CD63 on platelets; type: cell-based; conditions: 1.5 μM; ADP 20 μM; FIG. 11F
Experimental: αVβ3-K562 cells or transiently transfected HEK293T (0.5×10^6 in 100 μL WB) were incubated in the absence or presence of unlabeled Hr10 or eptifibatide, each at 1.5 μM, for 20 min at RT. Alexa647-labeled AP5 Fab or unlabeled anti-LIBS-1 (each to 10 μg/mL) were added, and cells incubated for an additional 30 min before washing. Alexa647-labeled AP3 was used for normalization of integrin expression. APC-labeled goat anti-mouse Fc-specific antibody was added to anti-LIBS-1-bound cells for an additional 30 min at 4° C., cells washed and processed for flow cytometry. Binding of anti-CD62 and anti-CD63 mAbs to platelets was performed by incubating (20 min, RT) 100 μL of ligand-pretreated 3.2% sodium citrate whole blood with either Alexa488-labeled mAb (at 10 μg/mL) in the presence of 10 μg/mL Alexa647-labeled anti-CD42b. Cells were fixed in 2% paraformaldehyde and CD62 and CD63 expression was analyzed by flow cytometry in the CD42b positive population.

[5] = tested on: vWF^RH/RH NSG mice infused with human platelets; experiment: Cremaster laser-induced arteriolar injury thrombosis in humanized mice; type: in vivo; conditions: eptifibatide 5 μg/mouse, Hr10 60 μg/mouse (equimolar), infused 5 min prior to injury; FIG. 13A
Experimental: Intravital microscopy was performed as previously described (see e.g., Celi et al, J. Thromb. Haemost. 1, 60-68 (2003); and Neyman et al, Blood, 112, 1101-1108 (2008)). vWF^RH/RHNSG male mice were studied after being anesthetized using sodium pentobarbital (80 mg/kg) injected intraperitoneally. Mice were maintained under anesthesia with the same anesthetic delivered via a catheterized jugular vein at 5 mg/mL throughout the experiment. The cremaster muscle was surgically exteriorized and continuously superfused with a physiological buffer (PBS containing 0.9 mM CaCl2 and 0.49 mM MgCl2) maintained at 37° C. throughout the entire experiment and equilibrated with a mixture of 95% N2 and 5% CO2. Human platelets, 400 million per mouse, were labeled with mouse anti-human CD41 F(ab′)2 (BD Biosciences) conjugated to Alexa Fluor-488 and infused into the jugular vein, followed by Alexa Fluor-647 rat anti-mouse CD41 F(ab′)2 (Thermo Fisher) to detect endogenous mouse platelets (see e.g., Fuentes et al, J. Clin. Invest. 126, 483-494 (2016)). Vascular injury was induced with an SRS NL100 pulsed nitrogen dye laser (440 nm) focused on the vessel wall through the microscope objective. […] Intensity of the fluorescent signal was used to measure incorporated platelets (see e.g., Neyman et al, Blood 112, 1101-1108 (2008). Eight injuries were made in each of four mice in each group.

[6] = target: T2, αIIbβ3 on resting platelets (Homo sapiens, UniProt P05106+P08514); conditions: Schror & Weber 2003, read-out: affinity of eptifibatide to αIIbβ3 on resting platelets (kD); cited from earlier work
T2 construct: host or cells: resting platelets
T2 sequence (P08514 32-887 limits assumed): as the sequence (P08514 32-887 limits assumed) above
T2 sequence (P08514 891-1039 partner limits assumed): as the sequence (P08514 891-1039 partner limits assumed) above
T2 sequence (P05106 27-788): as the sequence (P05106 27-788) above

[7] = target: T1, αIIbβ3; experiment: Displacement of labeled fibrinogen binding to αIIbβ3-K562 cells (flow cytometry); parameters: expressed in transfected cells; host or cells: K562
Experimental: For ligand binding competition studies, 100 μL of PT-25-activated αIIbpβ3-K562 (1×10^6) were incubated for 30 minutes at RT with serially diluted concentrations of Hr10, hFN10, or eptifibatide in the presence of 0.5 μM Alexa647-conjugated FB. Cells were washed, fixed in 2% paraformaldehyde and analyzed by flow cytometry. Ligand binding was expressed as […] of cells in the absence of competitor ligands. Mean and SD from three independent experiments were calculated, and compared using Student's t-test.

[8] = tested on: human platelets; experiment: Agonist-induced platelet aggregation in whole human blood (impedance, Chrono-Log 700); type: cell-based; conditions: for IC50: Homo sapiens, Platelet
Experimental: as §1
Platelet aggregation was measured in whole blood by impedance increase with a Chrono-log model 700 according to the manufacturer's protocol. Citrated whole blood was diluted with an equal volume of physiologic saline (Sigma) and incubated for 5 min at 37° C. without stirring. Inhibitors were added to final concentration and the cuvette stirred at 1,200 rpm. Following establishment of stable baseline, ADP (20 μM) was added and tracings recorded for 6 min. The extent of aggregation was determined as the integrated impedance over 5 min.

[9] = target: T1, αIIbβ3; experiment: Displacement of labeled Hr10 binding to inactive or PT-25-activated αIIbβ3-K562 cells (FACS); parameters: expressed in transfected cells; host or cells: K562; conditions: for IC50: Alexa488-labeled Hr10, 1 mM Mg2+ and Ca2+
Experimental: […] Cells were washed, fixed in 2% paraformaldehyde and analyzed by flow cytometry. Ligand binding was expressed as […] of cells in the absence of competitor ligands. Mean and SD from three independent experiments were calculated, and compared using Student's t-test.

[10] = FIG. 6D, M-tirofiban 1.5 μM, human platelets

| SMILES | conformational changes in αIIbβ3 reported by binding of mAbs AP5 and LIBS-1 ([1]; FIG. 8D, 1.5 μM, human platelets, absence or presence of 5 μM ADP) | kinetics of thrombin-induced clot retraction vs. buffer ([2]; FIGS. 12A-12B, fresh human PRP, 2-hour assay) | inhibition of ADP-induced ATP secretion from dense granules in whole blood [3] [%] | ADP-induced secretion from platelet α-granules (CD62P expression) and lysosomes (CD63 expression) [4] | nascent occlusive thrombus formation at sites of laser-induced arteriolar injury [5] | Kd [6] [nM] | IC50 ([7]; FIG. 8C, preactivated αIIbβ3-K562, mean S.E., n=3, read-out: IC50, inhibition of binding of Alexa647-labeled soluble FB to activated αIIbβ3) [nM] | IC50 ([8]; FIG. 6C, ADP 20 μM, mean±S.E., n=5, three donors, read-out: IC50, human platelet aggregation induced by ADP) [nM] | IC50 ([8]; summary of FIGS. 6B-6C, ADP 20 μM, read-out: Prevention of ADP-induced human platelet aggregation, concentration range) [nM] | induction of AP5 epitope expression [1, 10] | effect on clot retraction induced by α-thrombin [2] | kinetics of thrombin-induced clot retraction [2] | IC50 ([8]; read-out: IC50, human platelet aggregation induced by ADP) [nM] | reduction in affinity of M-tirofiban vs. tirofiban ([8]; from fibrinogen displacement and platelet aggregation assays) [fold] | activating conformational changes in αIIbβ3 reported by AP5 binding ([1]; FIG. 4, human platelets in PRP, saturating amounts, absence or presence of 20 μM ADP) | effect on ADP-induced AP5 expression ([1]; FIG. 6D, M-tirofiban 1.5 μM, ADP 5 μM added before or after) | IC50 ([7]; FIG. 6B, mean±S.E., n=4 experiments, read-out: IC50, displacement of labeled fibrinogen bound to preactivated αIIbβ3-K562) [nM] | binding affinity to inactive vs. active αIIbβ3 ([9]; FIGS. 6F-6G, 12C) | IC50 ([9]; active αIIbβ3, read-out: IC50, displacement of labeled Hr10 binding to mAb PT-25-activated αIIbβ3-K562) [nM] | IC50 ([9]; inactive αIIbβ3, read-out: IC50, displacement of labeled Hr10 binding to inactive αIIbβ3-K562) [nM] |
| --- | --- | --- | --- | --- | --- | --- | --- | --- | --- | --- | --- | --- | --- | --- | --- | --- | --- | --- | --- | --- |
| N=C(N)NCCCC[C@@H]1NC(=O)CCSSC[C@@H](C(N)=O)NC(=O)[C@@H]2CCCN2C(=O)[C@H](Cc2c[nH]c3ccccc23)NC(=O)[C@H](CC(=O)O)NC(=O)CNC1=O [eptifibatide] ([Mpa][hArg]GDWPC-NH2; disulfide 1-7) | induced conformational changes in αIIbβ3 | clot retraction was significantly reduced vs buffer; also recorded: significantly blocked clot retraction | 60±200 | did not significantly alter | completely preventing nascent occlusive thrombus formation | 120 | 73.2 ± 7 |  |  |  |  |  |  |  |  |  |  |  |  |  |
| CCCCS(=O)(=O)N[C@@H](Cc1ccc(OCCCCC2CCNCC2)cc1)C(=O)O [tirofiban] |  |  |  |  |  |  |  | 1.41 ± 0.23 | 1.5 to 2 | induced expression of the AP5 epitope | completely blocked clot retraction | effectively blocked thrombin-induced clot retraction |  |  |  |  |  |  |  |  |
| O=C(N[C@@H](Cc1ccc(OCCCCC2CCNCC2)cc1)C(=O)O)c1nc2ccccc2o1 [M-tirofiban, OC(═O)[C@H](CC1═CC═C(OCCCCC2CCNCC2)C═C1)NC(═O)C1═NC2═C(O1)C ═CC═C2] |  |  |  |  |  |  |  |  |  | did not induce AP5 expression; also recorded: No significant differences were found between B and M | reduced clot retraction minimally | did not; also recorded: not different between buffer control (contr.) and M-tirofiban | 18.5 ± 5.4 | ~10 | did not induce the activating shape-shifts | suppressed ADP-induced AP5 expression | 30.9 ± 3.3 | equivalent binding affinities to inactive and active | 247 ± 29.3 | 257 ± 88 |
